Patent US8986696B2, “Trans-capsular administration of p38 map kinase inhibitors into orthopedic joints” (DePuy Mitek, Inc., priority 2007, dated 2015)
“And” between values parts separate entries of the source, which are not always exact repeats. Identical values can stand only once. Like-named read-outs stand apart in the source and are kept apart here.

Legend:
[1] = test system: rabbit anterior cruciate ligament transection (ACLT) model of osteoarthritis; experiment: ACLT model, therapeutic dosing regimen (Example IX); assay type: in vivo; settings: for Trochlear Groove Erosion of Cartilage / Tibial Plateau Presence of Clefts (Lateral) / Tibial Plateau Presence of Clefts (Medial) / Trochlear Groove Thickening / Femoral Condyle Presence of Clefts / Femoral Condyle % Surface Area Erosion (Lateral) / Femoral Condyle % Surface Area Erosion (Medial) / Tibial Plateau % Surface Area Erosion (Lateral) / Tibial Plateau % Surface Area Erosion (Medial) / Tibial Plateau # of Osteophytes (Lateral) / Tibial Plateau # of Osteophytes (Medial) / Trochlear Groove # of Osteophytes / Trochlear Groove Osteophyte Size / Femoral Condyle Depth of Erosion (Lateral) / Femoral Condyle Depth of Erosion (Medial) / Tibial Plateau Depth of Erosion (Lateral) / Tibial Plateau Depth of Erosion (Medial) / Combination Scores: All Trochlear Groove Effects / Combination Scores: All Condylar Effects / Combination Scores: All Tibial Plateau Effects / Combination Scores: All Cartilage Effects / Combination Scores: Total Score: Therapeutic Dosing Regimen; for Trochlear Groove Erosion of Cartilage / Tibial Plateau Presence of Clefts (Lateral) / Tibial Plateau Presence of Clefts (Medial) / Trochlear Groove Thickening / Femoral Condyle Presence of Clefts / Femoral Condyle % Surface Area Erosion (Lateral) / Femoral Condyle % Surface Area Erosion (Medial) / Tibial Plateau % Surface Area Erosion (Lateral) / Tibial Plateau % Surface Area Erosion (Medial) / Tibial Plateau # of Osteophytes (Lateral) / Tibial Plateau # of Osteophytes (Medial) / Trochlear Groove # of Osteophytes / Trochlear Groove Osteophyte Size / Femoral Condyle Depth of Erosion (Lateral) / Femoral Condyle Depth of Erosion (Medial) / Tibial Plateau Depth of Erosion (Lateral) / Tibial Plateau Depth of Erosion (Medial): mean gross score; for Trochlear Groove Erosion of Cartilage: 0 = 0, 1 < 25%, 2 = 25-50%, 3 > 50%; for Tibial Plateau Presence of Clefts (Lateral) / Tibial Plateau Presence of Clefts (Medial): 0 = Absent, 1 = Present; for Trochlear Groove Thickening: 0 = Normal, 1 = Thickened Areas; for Femoral Condyle Presence of Clefts: 0 = absent, 1 = unicondylar, 2 = both condyles; for Femoral Condyle % Surface Area Erosion (Lateral) / Femoral Condyle % Surface Area Erosion (Medial) / Tibial Plateau % Surface Area Erosion (Lateral) / Tibial Plateau % Surface Area Erosion (Medial): scale 0-5; for Tibial Plateau # of Osteophytes (Lateral) / Tibial Plateau # of Osteophytes (Medial) / Trochlear Groove # of Osteophytes / Trochlear Groove Osteophyte Size: scale 0 = 0; for Tibial Plateau # of Osteophytes (Lateral) / Tibial Plateau # of Osteophytes (Medial) / Trochlear Groove # of Osteophytes: 1 = 1, 2 = 2, 3 ≧ 2; for Trochlear Groove Osteophyte Size: 1 ≦ 1 mm, 2 = 1-2 mm, 3 > 2 mm; for Femoral Condyle Depth of Erosion (Lateral) / Femoral Condyle Depth of Erosion (Medial) / Tibial Plateau Depth of Erosion (Lateral) / Tibial Plateau Depth of Erosion (Medial): scale 0 = no damage to 3 = severe; for Combination Scores: All Trochlear Groove Effects / Combination Scores: All Condylar Effects / Combination Scores: All Tibial Plateau Effects / Combination Scores: All Cartilage Effects / Combination Scores: Total Score: mean; for Combination Scores: All Trochlear Groove Effects: 0-10, 10 = max damage; for Combination Scores: All Condylar Effects: 0-18, 18 = max damage; for Combination Scores: All Tibial Plateau Effects: 0-24, 24 = max damage; for Combination Scores: All Cartilage Effects: 0-40, 40 = max damage; for Combination Scores: Total Score: 0-52, 52 = max damage
Experimental: (§1) 130 Female New Zealand white rabbits underwent ACLT on the right knee. Intra-articular injections were administered to the operated knee once per week for five weeks beginning either one or six weeks after the ACLT. All animals were euthanized one week after the administration of the fifth injection. Gross observations were made on the knee joints according to a predetermined grading scale. The stifle joints were removed. Samples were preserved in 10% neutral buffered formalin. The stifle joints were photographed using high-resolution photography.
The ACLT was performed according to the ACLT model discussed above. Animals were group housed in pens on the floor and left untreated for six weeks to allow osteoarthritis to develop. Then, once weekly for five weeks, intra-articular injections were administered. One week following the last injection, the animals were sacrificed. The total in-life portion of this regimen was eleven weeks post-ACLT.
(§2) The study design consisted of an n=10 per group. A total of 160 μl was injected at each administration.
(§3) At the time of sacrifice the following parameters were evaluated grossly (the scale follows in parenthesis):
(§4) Each parameter was given a score. The combination of all parameters gave a Total Score (0-52). Additionally, combinations of the three subsets of data yielded scores for All Trochlear Groove Effects (0-10), All Condylar Effects (0-18) and All Tibial Plateau Effects (0-24). Lastly, an All Condylar Effects Score was obtained. The score for All Condylar Effects ranges from 0 to 40. The grades that compose this parameter are trochlear groove thickness and erosion, all the grades in All Condylar Effects, and all grades listed under Tibial Plateau. A higher score indicates more damage to the joint. A lower score indicates less damage or more cartilage preservation in the joint. Individual results for each parameter assessed were tabulated.

[2] = assay type: physicochemical
Experimental: JNJ 3026582 (RWJ 67657) was gamma irradiated on dry ice at a dose of 15 kgray. Then the sterile drug was aseptically mixed with ORTHOVISC® in the concentrations of 10 μg/mL and 100 μg/mL. Drug content uniformity was confirmed by reverse phase HPLC. There was approximately 100% drug stability.
JNJ 17089540 (RWJ 669307) was gamma irradiated on dry ice at a dose of 15 kgray. The sterile drug as aseptically mixed with ORTHOVISC® in the concentrations of 1 ug/uL and 10 ug/uL. Drug content uniformity was confirmed by reverse phase HPLC. There was approximately 100% drug stability.
Suprofen was gamma irradiated on dry ice at dose of 15 kgray. The sterile drug was aseptically mixed with ORTHOVISC® in the concentration of 1.3 ug/uL. Drug content uniformity at time of preparation and stability of 4 months at 4° C. was confirmed by reverse phase HPLC that there was around 100% drug stability.

[3] = test system: rabbit anterior cruciate ligament transection (ACLT) model of osteoarthritis; experiment: ACLT model, preventative dosing regimen (Example IX); assay type: in vivo; parameters: key to Trochlear Groove Erosion of Cartilage, mean score / Tibial Plateau # of Osteophytes (Medial), mean score: gross grading scale; higher score = more joint damage; key to All Condylar Effects (0-18), mean: score 0-18; higher = more joint damage
Experimental: as §1
The ACLT was performed according to the ACLT model discussed above. Animals were group housed in pens on the floor and left untreated for one week to allow healing of the surgical site. Then, once weekly for five weeks, intra-articular injections were administered. One week following the last injection, the animals were sacrificed. The total in-life portion of the preventative dosing regimen was […]. Previous studies have confirmed that the six week time-point allows sufficient degeneration changes to occur.
as §2, §3
as §4, with “[…] […]” for “Lastly, an All Condylar Effects Score was obtained. The score for All Condylar Effects ranges from 0 to 40.”

## OCCC#Cc1nc(-c2ccc(F)cc2)c(-c2ccncc2)n1CCCc1ccccc1 [JNJ 3026582 (RWJ 67657), 4-[4-(4-fluorophenyl)-1-(3-phenylpropyl)-5-(4-pyridinyl)-1H-imidazol-2-yl]-3-butyn-1-ol]
[1]
  Trochlear Groove Erosion of Cartilage: 1.9
  Tibial Plateau Presence of Clefts (Lateral): 0
  Tibial Plateau Presence of Clefts (Medial): 0
  Trochlear Groove Thickening: 0.3
  Femoral Condyle Presence of Clefts: 0
  Femoral Condyle % Surface Area Erosion (Lateral): 2.4
  Femoral Condyle % Surface Area Erosion (Medial): 0.7
  Tibial Plateau % Surface Area Erosion (Lateral): 1.3
  Tibial Plateau % Surface Area Erosion (Medial): 0.4
  Tibial Plateau # of Osteophytes (Lateral): 0.9
  Tibial Plateau # of Osteophytes (Medial): 1.4
  Trochlear Groove # of Osteophytes: 2.9
  Trochlear Groove Osteophyte Size: 2.9
  Femoral Condyle Depth of Erosion (Lateral): 1.7
  Femoral Condyle Depth of Erosion (Medial): 0.8
  Tibial Plateau Depth of Erosion (Lateral): 0.9
  Tibial Plateau Depth of Erosion (Medial): 0.2
  Combination Scores: All Trochlear Groove Effects: 8.0
  Combination Scores: All Condylar Effects: 5.6
  Combination Scores: All Tibial Plateau Effects: 5.3
  Combination Scores: All Cartilage Effects: 10.8
  Combination Scores: Total Score: 18.9
[2]
  drug stability: approximately 100%
[3]
  All Cartilage Effects (0-40), mean: 4.3+1.8 and 4.3
  All Condylar Effects (0-18), mean: 1.6 ± 1.3 and 1.6
  All Tibial Plateau Effects (0-24), mean: 3.7
  All Trochlear Groove Effects (0-10), mean: 6.6
  Femoral Condyle % Surface Area Erosion (Lateral), mean score: 0.4 ± 0.3 and 0.4
  Femoral Condyle % Surface Area Erosion (Medial), mean score: 0.5 ± 0.4 and 0.5
  Femoral Condyle Depth of Erosion (Lateral), mean score: 0.4 ± 0.3 and 0.4
  Femoral Condyle Depth of Erosion (Medial), mean score: 0.3+0.3 and 0.3
  Femoral Condyle Presence of Clefts, mean score: 0
  Tibial Plateau # of Osteophytes (Lateral), mean score: 0.6
  Tibial Plateau # of Osteophytes (Medial), mean score: 1.7
  Tibial Plateau % Surface Area Erosion (Lateral), mean score: 0.7
  Tibial Plateau % Surface Area Erosion (Medial), mean score: 0
  Tibial Plateau Depth of Erosion (Lateral), mean score: 0.7
  Tibial Plateau Depth of Erosion (Medial), mean score: 0
  Tibial Plateau Presence of Clefts (Lateral), mean score: 0
  Tibial Plateau Presence of Clefts (Medial), mean score: 0
  Total Score (0-52), mean: 11.9 ± 2.2 and 11.9
  Trochlear Groove # of Osteophytes, mean score: 2.8
  Trochlear Groove Erosion of Cartilage, mean score: 1.3
  Trochlear Groove Osteophyte Size, mean score: 2.5
  Trochlear Groove Thickening, mean score: 0

## CC(C(=O)O)c1ccc(C(=O)c2cccs2)cc1 (stereo not drawn) [Suprofen, reference compound]
[1]
  Trochlear Groove Erosion of Cartilage: 1.9
  Tibial Plateau Presence of Clefts (Lateral): 0
  Tibial Plateau Presence of Clefts (Medial): 0
  Trochlear Groove Thickening: 0
  Femoral Condyle Presence of Clefts: 0
  Femoral Condyle % Surface Area Erosion (Lateral): 1.3
  Femoral Condyle % Surface Area Erosion (Medial): 0.3
  Tibial Plateau % Surface Area Erosion (Lateral): 1.6
  Tibial Plateau % Surface Area Erosion (Medial): 0
  Tibial Plateau # of Osteophytes (Lateral): 0.8
  Tibial Plateau # of Osteophytes (Medial): 1.6
  Trochlear Groove # of Osteophytes: 3.0
  Trochlear Groove Osteophyte Size: 3.0
  Femoral Condyle Depth of Erosion (Lateral): 1.3
  Femoral Condyle Depth of Erosion (Medial): 0.2
  Tibial Plateau Depth of Erosion (Lateral): 1.4
  Tibial Plateau Depth of Erosion (Medial): 0
  Combination Scores: All Trochlear Groove Effects: 7.9
  Combination Scores: All Condylar Effects: 3.0
  Combination Scores: All Tibial Plateau Effects: 5.4
  Combination Scores: All Cartilage Effects: 7.9
  Combination Scores: Total Score: 16.3
[1]; therapeutic dosing regimen
  All Cartilage Effects, mean score: 7.9+1.5
  all condylar effects, mean score: 3.0 ± 1.0
  depth of the erosion on the lateral femoral condyle, mean score: 1.3 ± 0.4
  depth of the erosion on the medial femoral condyle, mean score: 0.2 ± 0.1
  percent surface area erosion of the lateral femoral condyle, mean score: 1.3 ± 0.4
  percent surface area erosion of the medial femoral condyle, mean score: 0.3 ± 0.2
[2]; 4 months, 1.3 ug/uL
  drug stability: around 100%
[3]
  All Cartilage Effects (0-40), mean: 6.8
  All Condylar Effects (0-18), mean: 4.1
  All Tibial Plateau Effects (0-24), mean: 3.1
  All Trochlear Groove Effects (0-10), mean: 7.1
  Femoral Condyle % Surface Area Erosion (Lateral), mean score: 2.1
  Femoral Condyle % Surface Area Erosion (Medial), mean score: 0.1+0.1 and 0.1
  Femoral Condyle Depth of Erosion (Lateral), mean score: 1.6
  Femoral Condyle Depth of Erosion (Medial), mean score: 0.3+0.3 and 0.3
  Femoral Condyle Presence of Clefts, mean score: 0
  Tibial Plateau # of Osteophytes (Lateral), mean score: 0.5
  Tibial Plateau # of Osteophytes (Medial), mean score: 1.1
  Tibial Plateau % Surface Area Erosion (Lateral), mean score: 0.9
  Tibial Plateau % Surface Area Erosion (Medial), mean score: 0
  Tibial Plateau Depth of Erosion (Lateral), mean score: 0.5
  Tibial Plateau Depth of Erosion (Medial), mean score: 0
  Tibial Plateau Presence of Clefts (Lateral), mean score: 0
  Tibial Plateau Presence of Clefts (Medial), mean score: 0
  Total Score (0-52), mean: 14.1
  Trochlear Groove # of Osteophytes, mean score: 2.8
  Trochlear Groove Erosion of Cartilage, mean score: 1.5
  Trochlear Groove Osteophyte Size, mean score: 2.8
  Trochlear Groove Thickening, mean score: 0
